In ChEMBL document CHEMBL1165907, “A comparative study of flavonoid analogues on streptozotocin-nicotinamide induced diabetic rats: quercetin as a potential antidiabetic agent acting via 11beta-hydroxysteroid dehydrogenase type 1 inhibition” (2010) one finds Activity and inhibition data, which are given here for seven compounds.

For experiment [1], the system named is Rattus norvegicus. Nature of the experiment: Hypoglycemic activity in Wistar rat assessed as change in blood glucose level at 50 mg/kg, ig after 1 hr (RVb = 10.96 +/- 3.67 %). Format: functional. To be noted: route intragastric.
In experiment [2] the test system is Rattus norvegicus. Nature of the experiment: Hypoglycemic activity in Wistar rat assessed as change in blood glucose level at 50 mg/kg, ig after 3 hrs (RVb = 1.39 +/- 5.895 %). As to conditions: route intragastric. Format: functional.
Experiment [3] relates to Rattus norvegicus. In words: Hypoglycemic activity in Wistar rat assessed as change in blood glucose level at 50 mg/kg, ig after 5 hrs (RVb = 1.21+/- 3.64 %). Format: functional. As to conditions: route intragastric.
For experiment [4], the system named is Rattus norvegicus. Nature of the experiment: Hypoglycemic activity in Wistar rat assessed as change in blood glucose level at 50 mg/kg, ig after 7 hrs (RVb = -3.59 +/- 2.65 %). To be noted: route intragastric. Format: functional.
Experiment [5] relates to Rattus norvegicus. In words: Antidiabetic activity in Wistar rat assessed as change in blood glucose level at 50 mg/kg, ig after 1 hr (RVb = 20.18 % +/- 8.49%). Format: functional. As to conditions: route intragastric.
In experiment [6] the test system is Rattus norvegicus. In words: Antidiabetic activity in Wistar rat assessed as change in blood glucose level at 50 mg/kg, ig after 3 hrs (RVb = -9.83 % +/- 5.67%). Format: functional. To be noted: route intragastric.
The test system of experiment [7] is Rattus norvegicus. Nature of the experiment: Antidiabetic activity in Wistar rat assessed as change in blood glucose level at 50 mg/kg, ig after 7 hrs (RVb = -10.51% +/- 5.53%). Format: functional. As to conditions: route intragastric.
The subject of experiment [8] is Rattus norvegicus. Nature of the experiment: Antidiabetic activity in Wistar rat assessed as change in blood glucose level at 50 mg/kg, ig after 5 hrs (RVb = -1.17% +/- 8.77%). Format: functional. As to conditions: route intragastric.
Experiment [9] has as its system Rattus norvegicus. Nature of the experiment: Antidiabetic activity in STZ-induced Wistar rat assessed as reduction in blood glucose level at 50 mg/kg, ig after 1 day relative to control. As to conditions: route intragastric. Format: functional. Also on record: scale not given: the % may be the effect or the level left.
The subject of experiment [10] is Rattus norvegicus. In words: Antidiabetic activity in STZ-induced Wistar rat assessed as reduction in blood glucose level at 50 mg/kg, ig after 2 day relative to control. Format: functional. Also on record: scale not given: the % may be the effect or the level left. To be noted: route intragastric.
The test system of experiment [11] is Rattus norvegicus. In words: Antidiabetic activity in STZ-induced Wistar rat assessed as reduction in blood glucose level at 50 mg/kg, ig after 3 day relative to control. Format: functional. Details: scale not given: the % may be the effect or the level left. As to conditions: route intragastric.
The test system of experiment [12] is Rattus norvegicus. In words: Antidiabetic activity in STZ-induced Wistar rat assessed as reduction in blood glucose level at 50 mg/kg, ig after 4 day relative to control. Format: functional. Details: scale not given: the % may be the effect or the level left. To be noted: route intragastric.
The test system of experiment [13] is Rattus norvegicus. Nature of the experiment: Antidiabetic activity in STZ-induced Wistar rat assessed as reduction in blood glucose level at 50 mg/kg, ig after 5 day relative to control. Format: functional. Details: scale not given: the % may be the effect or the level left. As to conditions: route intragastric.
In experiment [14] the target is 11-beta-hydroxysteroid dehydrogenase 1 (Homo sapiens) (UniProt P28845). In words: Inhibition of human 11beta HSD1 in HEK293 cells at 10 uM. It counts as cell-based.
Chain of 11-beta-hydroxysteroid dehydrogenase 1 (Homo sapiens) (P28845 whole entry, looked up): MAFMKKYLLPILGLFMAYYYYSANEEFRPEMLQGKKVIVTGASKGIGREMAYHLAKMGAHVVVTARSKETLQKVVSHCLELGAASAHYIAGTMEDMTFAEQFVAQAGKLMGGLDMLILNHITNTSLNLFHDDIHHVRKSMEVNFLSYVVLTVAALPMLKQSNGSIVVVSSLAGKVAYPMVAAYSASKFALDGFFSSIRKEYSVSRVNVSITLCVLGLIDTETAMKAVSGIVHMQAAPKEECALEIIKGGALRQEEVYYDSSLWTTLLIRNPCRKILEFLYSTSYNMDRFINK

For the compound `O=c1cc(-c2ccccc2)oc2ccc(O)cc12` [6-HYDROXYFLAVONE], the Activity in experiment [1] is -16.21%; in [2], 6.51%; in [3], 6.41%; in experiment [4], -0.93%; in experiment [5], -13.08%; in [6], -11.07%. Also, the Activity in experiment [7] is -25.42%; in experiment [8], -19.81%; in [9], 16.9%; in experiment [10], 6.6%; in experiment [11], 13.15%; in experiment [12] it was 2.53%. Moreover, the Activity in experiment [13] is 34.7%.
Regarding `O=c1cc(-c2ccccc2)oc2cc(O)ccc12` [7-HYDROXYFLAVONE], the Activity in experiment [1] is given as 5.05%; in [2], -6.19%; in [3], 7.39%; in experiment [4], -4.81%; in experiment [5], -12.79%; in [6] it was -12.69%. Moreover, the Activity in experiment [7] was -12.18%; in [8] it was -10.03%; in [9], 8.8%; in experiment [10], 35.5%; in [11], 36%; in [12], 20.4%. The Activity in experiment [13] is listed as 38.5%.
For `O=c1cc(-c2ccccc2)oc2cc(O)cc(O)c12` [CHRYSIN], the Activity in [1] is given as -9.27%; in [2], -19.98%; in [3], -17.08%; in experiment [4] it was -9.42%; in experiment [5], -1.7%; in experiment [6], -9.96%. Moreover, the Activity in experiment [7] is on record as -35.5%; in experiment [8], -10.41%; in experiment [9], 7.07%; in experiment [10], 19.6%; in [11] it was 5.2%; in experiment [12], 0.5%. The Activity in experiment [13] is 17.17%.
On to `O=c1cc(-c2ccccc2)oc2ccccc12` [FLAVONE], for which the Activity in [1] is -16.16%; in experiment [2], -21.56%; in experiment [3] it was -24.7%; in [4], -11.65%; in experiment [5] it was 13.53%; in experiment [6], -10.02%. Also, the Activity in experiment [7] is -39.69%; in experiment [8], -21.41%; in [9] it was 0.05%; in experiment [10], 32.76%; in [11], 19.5%; in experiment [12], 10.6%. Besides, the Activity in experiment [13] came out at 10.8%. In experiment [14], this compound gave an inhibition of 16%.
For the compound `O=c1c(O)c(-c2ccccc2)oc2ccccc12` [FLAVONOL], the Activity in experiment [1] is listed as -6.04%; in experiment [2], -20.2%; in [3], -2.36%; in [4] it was -10.05%; in experiment [5], 1.93%; in [6], -5.92%. Also, the Activity is -16.04% in experiment [7]; -15.66% in experiment [8]; 2.09% in experiment [9]; 7.7% in experiment [10]; 35.7% in [11]; 60.1% in experiment [12]. In [13], the Activity is 9.2%.
For `COc1ccc(Cl)cc1C(=O)NCCc1ccc(S(=O)(=O)NC(=O)NC2CCCCC2)cc1` [GLYBURIDE], the Activity in experiment [1] is recorded as -8.29%; in experiment [2], -21.71%; in [3], -24.78%; in experiment [4], -23.77%; in experiment [5], -21.93%; in experiment [6], -24.93%. Besides, the Activity in experiment [7] is listed as -42.52%; in [8], -43.88%; in [9], 33.2%; in experiment [10] it was 32.2%; in experiment [11], 38.5%; in experiment [12] it was 50%. The Activity in experiment [13] came out at 40%.
Turning to `O=c1c(O)c(-c2ccc(O)c(O)c2)oc2cc(O)cc(O)c12` [QUERCETIN], the Activity is recorded as -16.19% in [1]; -21.1% in experiment [2]; -10.74% in experiment [3]; -17.85% in experiment [4]; -2.37% in experiment [5]; -17.28% in experiment [6]. In addition, the Activity in experiment [7] is recorded as -42.62%; in experiment [8] it was -52.68%; in experiment [9] it was 10.8%; in [10], 13.3%; in experiment [11] it was 27%; in [12], 21.3%. For the same compound, the Activity in experiment [13] stood at 3.7%. Also, in experiment [14], the inhibition amounted to 27%.

One may read the inhibition as the percentage by which the read-out fell short of the control.
